Here are results for 1 cell line from the supplement of paper PMC10307832.

What all share (assay): relative viability (nuclei count vs DMSO), 5 days (fraction); higher = more cells survive
Compound in assay [1]: CC(C)=CC[C@@H](O)C1=CC(=O)c2c(O)ccc(O)c2C1=O [Shikonin] + Cc1nc(Nc2ncc(C(=O)Nc3c(C)cccc3Cl)s2)cc(N2CCN(CCO)CC2)n1 [Dasatinib] (partner 0.075 µM)
A digest of the protocol:
(§1)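 Dosing by pin tool came one day after lung cancer cell lines were seeded in 1536-well plates, using either one drug or a fixed anchor-drug dose plus five library-drug doses (not always all listed) in √10 steps. After 5 days, nuclei were counted on 4× images. Relative viability is treated-well nuclei count divided by vehicle-well nuclei count, and values are medians of duplicate plates.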

Compound in assay [2]: CC(C)N(CCCNC(=O)Nc1ccc(C(C)(C)C)cc1)C[C@H]1O[C@@H](n2ccc3c(N)ncnc32)[C@H](O)[C@@H]1O + CC(=O)Nc1cccc(-n2c(=O)n(C3CC3)c(=O)c3c(Nc4ccc(I)cc4F)n(C)c(=O)c(C)c32)c1 [Trametinib] (partner 0.02 µM)
Put shortly:
as §1

Compound in assay [3]: CC(C)N(CCCNC(=O)Nc1ccc(C(C)(C)C)cc1)C[C@H]1O[C@@H](n2ccc3c(N)ncnc32)[C@H](O)[C@@H]1O + CC1(C)CCC(c2ccc(Cl)cc2)=C(CN2CCN(c3ccc(C(=O)NS(=O)(=O)c4ccc(N[C@H](CCN5CCOCC5)CSc5ccccc5)c(S(=O)(=O)C(F)(F)F)c4)cc3)CC2)C1 [Navitoclax] (partner 0.5 µM)
Put shortly:
as §1

Compound in assay [4]: CC(C)N(CCCNC(=O)Nc1ccc(C(C)(C)C)cc1)C[C@H]1O[C@@H](n2ccc3c(N)ncnc32)[C@H](O)[C@@H]1O + COc1cccc2cc(-c3nc([C@H]4CC[C@H](C(=O)O)CC4)n4ncnc(N)c34)[nH]c12 [OSI-027] (partner 0.5 µM)
Put shortly: as §1

Consider UMC-11, for which the relative viability in assay [1] (first compound 0.01 µM) was found to be 0.476; in assay [1] (first compound 0.1 µM), 0.49; in assay [1] (first compound 0.3162 µM), 0.459; in assay [1] (first compound 1 µM), 0.503; in assay [2] (first compound 0.08 µM), 0.691; in assay [2] (first compound 0.253 µM), 0.541. Further, the relative viability in assay [2] (first compound 0.8 µM) worked out at 0.588; in assay [2] (first compound 2.53 µM), 0.789; in assay [2] (first compound 8 µM) it was 0.796; in assay [3] (first compound 0.08 µM), 0.296; in assay [3] (first compound 0.253 µM), 0.329; in assay [3] (first compound 0.8 µM) it was 0.319. The relative viability was determined as 0.302 in assay [3] (first compound 2.53 µM); 0.294 in assay [3] (first compound 8 µM); 0.458 in assay [4] (first compound 0.08 µM); 0.465 in assay [4] (first compound 0.253 µM); 0.453 in assay [4] (first compound 0.8 µM); 0.522 in assay [4] (first compound 2.53 µM). The relative viability in assay [4] (first compound 8 µM) was found to be 0.532.
